Laboratory results reported in patent US12391737B2, “Soluble NPY2 receptor agonists” (Boehringer Ingelheim International GmbH, priority 2020, dated 2025).

Experiments:
[1] = target: T1, Human Neuropeptide Y2 Receptor (Homo sapiens, UniProt P49146); experiment: Radioligand binding competition assay (RLB); conditions: Table 3, 125I-PYY(1-36) competition; read-out: Ki
T1 construct: purchased CHEMICON HTS066M
T1 sequence (P49146 1-381): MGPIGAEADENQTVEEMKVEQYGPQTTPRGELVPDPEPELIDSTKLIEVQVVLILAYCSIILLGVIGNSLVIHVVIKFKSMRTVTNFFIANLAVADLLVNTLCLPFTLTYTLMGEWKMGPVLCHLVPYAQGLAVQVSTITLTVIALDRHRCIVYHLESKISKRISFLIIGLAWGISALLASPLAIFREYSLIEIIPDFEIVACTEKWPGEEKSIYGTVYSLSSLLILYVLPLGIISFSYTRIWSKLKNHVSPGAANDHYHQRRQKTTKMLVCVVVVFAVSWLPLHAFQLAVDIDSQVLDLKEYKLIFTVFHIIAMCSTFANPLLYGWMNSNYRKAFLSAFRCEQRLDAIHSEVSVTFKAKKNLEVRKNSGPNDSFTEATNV
Procedure, shortened: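 Peptides were serially diluted from 1 mM DMSO stocks and competed for radioligand binding to receptor membranes (0.5 μg/well) over 2 h at room temperature, pH 7.4 HEPES buffer. Bound radioactivity on filters was counted by scintillation, and IC50 was derived by nonlinear regression.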

Solubility determination = conditions: for Sol6: pH 6; for Sol7: pH 7
Procedure, shortened: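 First, TFA-salt peptide was added to 0.1 M sodium diphosphate (pH 6.4 or 7.0) to 10 mg/ml and shaken 2 h at room temperature. Next, insoluble material was filtered off. Finally, filtrate and control, each 1 mg/ml in 50% acetonitrile, were compared by reversed-phase chromatography.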

Row | Compound | Ki [1] | Sol6 (Solubility determination) | Sol7 (Solubility determination)
1 | CC[C@H](C)[C@H](NC(=O)[C@H](CCC(=O)O)NC(=O)[C@H](CCC(=O)O)NC(=O)[C@@H]1CCCN1C(=O)[C@@H](NC(=O)[C@H](C)NC(=O)[C@H](CC(=O)O)NC(=O)[C@H](CCC(=O)O)NC(=O)[C@H](CCC(=O)O)NC(=O)[C@@H]1CCCN1C(=O)[C@H](CCCCNC(=O)CCCCCNC(=O)CC[C@H](NC(=O)CCCCCCCCCCCCCCCCC(=O)O)C(=O)O)NC(=O)[C@H](CCC(=O)O)NC(=O)[C@@H]1CCCN1C(=O)[C@H](C)NC(=O)CC(C)C)[C@@H](C)O)C(=O)N[C@@H](CCC(N)=O)C(=O)N[C@@H](CCCNC(=N)N)C(=O)N[C@@H](Cc1ccc(O)cc1)C(=O)N[C@@H](Cc1ccc(O)cc1)C(=O)N[C@H](C(=O)N[C@@H](CO)C(=O)N[C@@H](CC(C)C)C(=O)N[C@@H](CCCNC(=N)N)C(=O)N[C@@H](Cc1c[nH]cn1)C(=O)N[C@@H](Cc1ccc(O)cc1)C(=O)N[C@@H](CCC(N)=O)C(=O)N[C@@H](CC(N)=O)C(=O)N[C@@H](Cc1c[nH]c2ccccc12)C(=O)N[C@@H](CC(C)C)C(=O)N[C@H](C(=O)N[C@@H](CCCNC(=N)N)C(=O)N[C@@H](CCC(N)=O)C(=O)N[C@@H](CCCNC(=N)N)C(=O)N[C@@H](Cc1ccc(O)cc1)C(N)=O)[C@@H](C)O)C(C)C [Compound 113, N{alpha-4}-(3-methylbutanoyl)-N{epsilon-7}-(6-[(4S)-4-carboxy-4-(17-carboxyheptadecanamido)butanamido]hexanoyl)-[4A,7K,9E,13T,17I,18Q,22V,28Q,30W,31L]-hPYY(4-36)] | 3.53 nM | >10.0 mg/mL | 10.0 mg/mL
2 | CC(C)CC(=O)N[C@@H](C)C(=O)N1CCC[C@H]1C(=O)N[C@@H](CCC(=O)O)C(=O)N[C@@H](CCCCNC(=O)CCCCCNC(=O)CC[C@H](NC(=O)CCCCCCCCCCCCCCCCC(=O)O)C(=O)O)C(=O)N1CCC[C@H]1C(=O)N[C@@H](CCC(=O)O)C(=O)N[C@@H](CCC(=O)O)C(=O)N[C@@H](C)C(=O)N[C@@H](C)C(=O)N[C@@H](CCC(=O)O)C(=O)N1CCC[C@H]1C(=O)N[C@@H](CCC(=O)O)C(=O)N[C@@H](CCC(=O)O)C(=O)N[C@@H](CC(C)C)C(=O)N[C@@H](CCC(N)=O)C(=O)N[C@@H](CCCNC(=N)N)C(=O)N[C@@H](Cc1ccc(O)cc1)C(=O)N[C@@H](Cc1ccc(O)cc1)C(=O)N[C@H](C(=O)N[C@@H](CO)C(=O)N[C@@H](CC(C)C)C(=O)N[C@@H](CCCNC(=N)N)C(=O)N[C@@H](Cc1c[nH]cn1)C(=O)N[C@@H](Cc1ccc(O)cc1)C(=O)N[C@@H](Cc1ccc(O)cc1)C(=O)N[C@@H](CC(N)=O)C(=O)N[C@@H](Cc1c[nH]c2ccccc12)C(=O)N[C@@H](CC(C)C)C(=O)N[C@H](C(=O)N[C@@H](CCCNC(=N)N)C(=O)N[C@@H](CCC(N)=O)C(=O)N[C@@H](CCCNC(=N)N)C(=O)N[C@@H](Cc1ccc(O)cc1)C(N)=O)[C@@H](C)O)C(C)C [Compound 4, N{alpha-4}-(3-methylbutanoyl)-N{epsilon-7}-(6-[(4S)-4-carboxy-4-(17-carboxyheptadecanamido)butanamido]hexanoyl)[4A,7K,9E,11A,13E,18Q,22V,28Y,30W,31L]-hPYY(4-36)] | 4.65 nM | 10.0 mg/mL | 10.0 mg/mL
3 | CC(C)CC(=O)N[C@@H](C)C(=O)N1CCC[C@H]1C(=O)N[C@@H](C)C(=O)N[C@@H](CCCCNC(=O)CCCCCNC(=O)CC[C@H](NC(=O)CCCCCCCCCCCCCCCCC(=O)O)C(=O)O)C(=O)N1CCC[C@H]1C(=O)N[C@@H](CCC(=O)O)C(=O)N[C@@H](C)C(=O)N[C@@H](CC(=O)O)C(=O)N[C@@H](C)C(=O)N[C@@H](CO)C(=O)N1CCC[C@H]1C(=O)N[C@@H](CCC(=O)O)C(=O)N[C@@H](CCC(=O)O)C(=O)N[C@@H](CC(C)C)C(=O)N[C@@H](CCC(N)=O)C(=O)N[C@@H](CCCNC(=N)N)C(=O)N[C@@H](Cc1ccc(O)cc1)C(=O)N[C@@H](Cc1ccc(O)cc1)C(=O)N[C@H](C(=O)N[C@@H](CCC(=O)O)C(=O)N[C@@H](CC(C)C)C(=O)N[C@@H](CCCNC(=N)N)C(=O)N[C@@H](Cc1c[nH]cn1)C(=O)N[C@@H](Cc1ccc(O)cc1)C(=O)N[C@@H](Cc1ccc(O)cc1)C(=O)N[C@@H](CC(N)=O)C(=O)N[C@@H](Cc1c[nH]c2ccccc12)C(=O)N[C@@H](CC(C)C)C(=O)N[C@H](C(=O)N[C@@H](CCCNC(=N)N)C(=O)N[C@@H](CCC(N)=O)C(=O)N[C@@H](CCCNC(=N)N)C(=O)N[C@@H](Cc1ccc(O)cc1)C(N)=O)[C@@H](C)O)C(C)C [Compound 94, N{alpha-4}-(3-methylbutanoyl)-N{epsilon-7}-(6-[(4S)-4-carboxy-4-(17-carboxyheptadecanamido)butanamido]hexanoyl)-[4A,6A,7K,9E,10A,18Q,22V,23E,28Y,30W,31L]-hPYY(4-36)] | 0.93 nM | 8.4 mg/mL | 8.9 mg/mL
4 | CC(C)CC(=O)N[C@@H](C)C(=O)N1CCC[C@H]1C(=O)N[C@@H](CCC(=O)O)C(=O)N[C@@H](CCCCNC(=O)CCCCCNC(=O)CC[C@H](NC(=O)CCCCCCCCCCCCCCCCC(=O)O)C(=O)O)C(=O)N1CCC[C@H]1C(=O)N[C@@H](CCC(=O)O)C(=O)N[C@@H](CCC(=O)O)C(=O)N[C@@H](CC(=O)O)C(=O)N[C@@H](C)C(=O)N[C@H](C(=O)N1CCC[C@H]1C(=O)N[C@@H](CCC(=O)O)C(=O)N[C@@H](CCC(=O)O)C(=O)N[C@@H](CC(C)C)C(=O)N[C@@H](CCC(N)=O)C(=O)N[C@@H](CCCNC(=N)N)C(=O)N[C@@H](CCC(N)=O)C(=O)N[C@@H](Cc1ccc(O)cc1)C(=O)N[C@H](C(=O)N[C@@H](CO)C(=O)N[C@@H](CC(C)C)C(=O)N[C@@H](CCCNC(=N)N)C(=O)N[C@@H](Cc1c[nH]cn1)C(=O)N[C@@H](Cc1ccc(O)cc1)C(=O)N[C@@H](Cc1ccc(O)cc1)C(=O)N[C@@H](CC(N)=O)C(=O)N[C@@H](Cc1c[nH]c2ccccc12)C(=O)N[C@@H](CC(C)C)C(=O)N[C@H](C(=O)N[C@@H](CCCNC(=N)N)C(=O)N[C@@H](CCC(N)=O)C(=O)N[C@@H](CCCNC(=N)N)C(=O)N[C@@H](Cc1ccc(O)cc1)C(N)=O)[C@@H](C)O)C(C)C)[C@@H](C)O [Compound 88, N{alpha-4}-(3-methylbutanoyl)-N{epsilon-7}-(6-[(4S)-4-carboxy-4-(17-carboxyheptadecanamido)butanamido]hexanoyl)-[4A,7K,9E,13T,18Q,20Q,22V,28Y,30W,31L]-hPYY(4-36)] | 16.3 nM | 8.7 mg/mL | 8.9 mg/mL

More lines, now with the values ahead:

Row | Ki [1] | Sol6 (Solubility determination) | Sol7 (Solubility determination) | Compound
5 | 4.23 nM | >10.0 mg/mL | >10.0 mg/mL | CC[C@H](C)[C@H](NC(=O)[C@H](CCC(=O)O)NC(=O)[C@H](CCC(=O)O)NC(=O)[C@@H]1CCCN1C(=O)[C@@H](NC(=O)[C@H](C)NC(=O)[C@H](CC(=O)O)NC(=O)[C@H](CCC(=O)O)NC(=O)[C@H](CCC(=O)O)NC(=O)[C@@H]1CCCN1C(=O)[C@H](CCCCNC(=O)CCCCCNC(=O)CC[C@H](NC(=O)CCCCCCCCCCCCCCCCC(=O)O)C(=O)O)NC(=O)[C@H](CCC(=O)O)NC(=O)[C@@H]1CCCN1C(=O)[C@H](C)NC(=O)CC(C)C)[C@@H](C)O)C(=O)N[C@@H](CCC(N)=O)C(=O)N[C@@H](CCCNC(=N)N)C(=O)N[C@@H](Cc1ccc(O)cc1)C(=O)N[C@@H](Cc1ccc(O)cc1)C(=O)N[C@@H](CC(C)C)C(=O)N[C@@H](CO)C(=O)N[C@@H](CC(C)C)C(=O)N[C@@H](CCCNC(=N)N)C(=O)N[C@@H](Cc1c[nH]cn1)C(=O)N[C@@H](Cc1ccc(O)cc1)C(=O)N[C@@H](Cc1ccc(O)cc1)C(=O)N[C@@H](CC(N)=O)C(=O)N[C@@H](Cc1c[nH]c2ccccc12)C(=O)N[C@@H](CC(C)C)C(=O)N[C@H](C(=O)N[C@@H](CCCNC(=N)N)C(=O)N[C@@H](CCC(N)=O)C(=O)N[C@@H](CCCNC(=N)N)C(=O)N[C@@H](Cc1ccc(O)cc1)C(N)=O)[C@@H](C)O [Compound 97, N{alpha-4}-(3-methylbutanoyl)-N{epsilon-7}-(6-[(4S)-4-carboxy-4-(17-carboxyheptadecanamido)butanamido]hexanoyl)-[4A,7K,9E,13T,17I,18Q,22L,28Y,30W,31L]-hPYY(4-36)]
6 | 24.6 nM | 10.0 mg/mL | 10.0 mg/mL | CC[C@H](C)[C@H](NC(=O)[C@H](CCC(=O)O)NC(=O)[C@H](CCC(=O)O)NC(=O)[C@@H]1CCCN1C(=O)[C@@H](NC(=O)[C@H](C)NC(=O)[C@H](CC(=O)O)NC(=O)[C@H](CCC(=O)O)NC(=O)[C@H](CCC(=O)O)NC(=O)[C@@H]1CCCN1C(=O)[C@H](CCCCNC(=O)CCCCCNC(=O)CC[C@H](NC(=O)CCCCCCCCCCCCCCCCC(=O)O)C(=O)O)NC(=O)[C@H](CCC(=O)O)NC(=O)[C@@H]1CCCN1C(=O)[C@H](C)NC(=O)CC(C)C)[C@@H](C)O)C(=O)N[C@@H](CCC(N)=O)C(=O)N[C@@H](CCCNC(=N)N)C(=O)N[C@@H](Cc1ccc(O)cc1)C(=O)N[C@@H](Cc1ccc(O)cc1)C(=O)N1CCC[C@H]1C(=O)N[C@@H](CO)C(=O)N[C@@H](CC(C)C)C(=O)N[C@@H](CCCNC(=N)N)C(=O)N[C@@H](Cc1c[nH]cn1)C(=O)N[C@@H](Cc1ccc(O)cc1)C(=O)N[C@@H](Cc1ccc(O)cc1)C(=O)N[C@@H](CC(N)=O)C(=O)N[C@@H](Cc1c[nH]c2ccccc12)C(=O)N[C@@H](CC(C)C)C(=O)N[C@H](C(=O)N[C@@H](CCCNC(=N)N)C(=O)N[C@@H](CCC(N)=O)C(=O)N[C@@H](CCCNC(=N)N)C(=O)N[C@@H](Cc1ccc(O)cc1)C(N)=O)[C@@H](C)O [Compound 17, N{alpha-4}-(3-methylbutanoyl)-N{epsilon-7}-(6-[(4S)-4-carboxy-4-(17-carboxyheptadecanamido)butanamido]hexanoyl)[4A,7K,9E,13T,17I,18Q,22P,28Y,30W,31L]-hPYY(4-36)]
